Test results from patent EP0188793A1, “Improved topical minoxidil composition” (Richardson-Vicks, Inc., priority 1984, dated 1986).

Assay: in-vitro dripping (seepage) assay: distance traveled by a drop down an inclined glass plate
Assay type: physicochemical
Procedure: An in-vitro assay is utilized which measures the distance traveled by a 10 µ1 drop of the test formulation down a glass plate inclined at 45°C for 10 seconds. The test formulation is colored with dye to enhance the visual movement of the product. Pure ethanol (Ethanol, U.S.P) is used as the standard against which the test formulation is compared. […] The solvent system for each test formulation is 50:50 EtOH:HOH.
The ratio of the distance traveled ("dripping distance") by the particular test formulation to that of the ethanol standard provides the "dripping index" number for the test formulation.

- Dripping Distance (10 µ1 drop, glass plate inclined at 45°C, 10 seconds, solvent 50:50 EtOH:HOH): 60 mm
- Dripping Index (ratio of dripping distance of the test formulation to that of the ethanol standard): 1.00
SMILES: CCO [100% Ethanol, Ethanol]
